In patent US20190029987A1, “DIMETHYL FUMARATE (DMF) FOR PREVENTION OR TREATMENT OF GOUT, ACNE, DIABETES, VITILIGO AND/OR PYODERMA GANGRENOSUM” (UNIVERSITAT ZURICH, priority 2016, published 2019):

How the values were obtained:
[1] = tested on: Nrf2 target genes (GCLC, GCLM, NAD(P)H dehydrogenase, quinone 1); assay: Nrf2 target gene expression in HPKs (qRT-PCR); format: cell-based, human; settings: 10 μM, RNA after 8 h, FIG. 6G
Description: Human primary keratinocytes (HPKs) constitutively express pro-IL-1β and inflammasome proteins.
qRT-PCR was performed with the LightCycler 480 SYBR Green Master or the FastStart Universal SYBR Green Master (both Roche, Rotkreuz, Switzerland) using total cellular RNA. Specific primer pairs (Supplementary Table 2) were designed to generate an approximately 150 bp fragment flanking an intron-exon border of the corresponding gene. The LightCycler 480 96-well version (ROCHE, Rotkreuz, Switzerland) or the ViiA 7 Real-Time FOR System (Life Technologies, Carlsbad, US-CA) was used for reaction and detection according the instructions of the manufacturer.
FIG. 6: Bone marrow (BM) cells were isolated from Nrf2-deficient mice and wt litterfnates and differentiated into dendritic cells (DCs). (A, B) After priming with upLPS overnight, BMDCs were treated with the NLRP3 inflammasome activators nigericin (20 μM), zymosan (20 μg/ml), MSU (150 μg/ml), ATP (5 mM) or transfected with poly(dA:dT) (1 μg/ml) for activation of the AIM2 inflammasome. After 6 h, supernatants were analysed for secretion of IL-1β by (A) ELISA or (B) Western blot. Mock-treated but primed BMDCs were analysed for expression of inflammasome proteins and pro-IL-1β at the (C) mRNA level by qRT-PCR or at the (D) protein level by Western blot. (B, D) Duplicates from two individual mice per genotype are shown (biological replicates). (E-G) HPKs were treated with the Nrf2 activators SFN (10 μM), tBHQ (10 μM), DMF (50 μM) and 15d-PGJ2 (10 μM). After 1 h, the cells were harvested and analysed for expression of the indicated proteins using total cell lysates (E) or cytoplasmic and nuclear lysates (F). Western blots for the nuclear protein lamin NC and the cytoplasmic protein α-tubulin served as controls. Specific bands are marked with an asterisk. (G) Total RNA was isolated after 8 h and qRT-PCR was performed for quantification of expression of the Nrf2 target genes glutamate-cysteine ligase, catalytic subunit (GCLC), glutamate-cysteine ligase, modifier subunit (GCLM), and NAD(P)H dehydrogenase, quinone 1 (N001). (A-G) Representative experiments performed at least three times are shown. […] Mann-Whitney test was performed. […] Mann-Whitney test was performed. *P≤0.05

[2] = molecular target: T1, NLRP3 inflammasome (Homo sapiens, UniProt Q96P20); assay: Inflammasome activation by nigericin/MSU in differentiated, primed THP-1 cells (IL-1β ELISA, Western blot); format: cell-based; settings: for accumulation of mature IL-1β in the cells (lysate): THP-1, 10 μM 30 min before nigericin, 2.5 h, FIG. 8D; for IL-1β secretion: THP-1, 10 μM 1 h before 5 μM nigericin or 150 μg/ml MSU, 5 h, FIG. 2B
T1 construct: endogenous in cells
T1 sequence (Q96P20 whole entry): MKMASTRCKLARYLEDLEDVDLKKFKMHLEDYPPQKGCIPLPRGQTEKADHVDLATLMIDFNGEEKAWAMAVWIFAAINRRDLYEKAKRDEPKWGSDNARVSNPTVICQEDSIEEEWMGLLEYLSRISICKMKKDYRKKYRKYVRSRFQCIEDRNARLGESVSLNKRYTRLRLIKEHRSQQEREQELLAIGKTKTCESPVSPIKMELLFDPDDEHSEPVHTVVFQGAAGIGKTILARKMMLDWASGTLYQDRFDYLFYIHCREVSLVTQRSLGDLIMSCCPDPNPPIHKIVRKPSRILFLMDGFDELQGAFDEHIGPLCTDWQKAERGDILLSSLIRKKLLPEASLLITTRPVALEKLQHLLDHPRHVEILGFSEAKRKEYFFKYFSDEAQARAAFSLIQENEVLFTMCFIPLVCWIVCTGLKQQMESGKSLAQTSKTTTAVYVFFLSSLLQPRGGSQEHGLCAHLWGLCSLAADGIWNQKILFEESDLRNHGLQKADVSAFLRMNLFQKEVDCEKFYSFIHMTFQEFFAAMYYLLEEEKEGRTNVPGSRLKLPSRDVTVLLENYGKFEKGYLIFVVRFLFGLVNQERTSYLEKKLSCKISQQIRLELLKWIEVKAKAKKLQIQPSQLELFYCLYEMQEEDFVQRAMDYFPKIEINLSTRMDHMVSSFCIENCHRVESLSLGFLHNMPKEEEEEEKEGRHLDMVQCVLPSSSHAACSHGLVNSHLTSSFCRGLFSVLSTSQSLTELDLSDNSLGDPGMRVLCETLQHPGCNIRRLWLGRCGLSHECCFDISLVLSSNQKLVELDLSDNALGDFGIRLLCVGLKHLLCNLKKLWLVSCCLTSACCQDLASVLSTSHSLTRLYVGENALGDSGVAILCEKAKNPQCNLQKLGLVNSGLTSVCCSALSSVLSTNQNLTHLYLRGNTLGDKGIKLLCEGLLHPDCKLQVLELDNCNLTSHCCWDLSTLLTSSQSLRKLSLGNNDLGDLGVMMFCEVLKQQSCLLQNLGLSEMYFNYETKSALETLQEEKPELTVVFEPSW
Source text: (§1) To determine the effects of Nrf2 activating compounds on inflammasome activation, the inventors treated keratinocytes with different doses of SFN, tBHQ, DMF or 15d-PGJ2 and irradiated the cells with UVB.
(§2) SFN, DMF, 15d-PGJ2, tBHQ, zymosan, ATP, poly(dA:dT), cycloheximide, puromycin, and doxycycline were purchased from Sigma (Munich, Germany), nigericin from Enzo Life Sciences (New York, US-NY), MG132 from Calbiochem (Darmstadt, Germany), and blasticidin from Invivogen (Toulouse, France). Release of IL-1p was determined by ELISA according the instructions of the manufacturer (R&D Systems, Minneapolis, US-MN). MSU crystals were prepared by crystallisation of a supersaturated solution of uric acid under mildly basic conditions. Briefly, uric acid was added to a solution of NaOH, the solution was boiled until the uric acid was dissolved and passed through a filter. NaCl was added and crystallisation was performed at 4° C. Crystals were filtered, then dried using a speedvac, weighted and autoclaved.
(§3) (A) HPKs were treated with the indicated concentrations of the Nrf2 activating compound tBHQ irradiated with UVB 30 min later and harvested after 5 h. ELISA measurements were performed for quantification of IL-1β secretion and Western blots for analysis of expression and activation of the indicated proteins. Specific bands are marked with an asterisk. (B) THP-1 cells were differentiated with PMA (27 nM) for 3 d, primed with upLPS (100 ng/ml) overnight, and 1 h before inflammasome activation (5 μM nigericin, 150 μg/ml MSU) treated with SFN (10 μM), 15-PGJ2 (10 μM) or DMF (50 μM) (15-PG: 15-PGJ2). Cells and supernatants were harvested after 5 h and analysed for inflammasome activation by ELISA measurement of IL-1p and Western blots as indicated. (C) Freshly isolated PBMCs from human blood were primed overnight with upLPS (100 ng/ml) and treated with SFN (10 μM), tBHQ (10 μM), DMF (50 μM) or 15-PGJ2 (10 μM) 1 h before inflammasome activation by nigericin (5 μM). ELISA measurement for secretion of IL-1β as readout for inflammasome activation was performed after 5 h. (D) HPKs or (E) differentiated and primed THP-1 cells were pretreated with cycloheximide (CHX, 30 μg/ml) to block protein synthesis for 1 h before SFN (10 μM) was added to the cells and after an additional hour the inflammasome was activated by (D) irradiation with UVB or (E) treatment with nigericin (5 μM). Cells and supernatants were harvested after (D) 6 h or (E) 3.5 h and analysed for inflammasome activation by Western blot as indicated. (A-E) Representative experiments performed at least three times are shown. Statistics: (A-C) Error bars represent the mean±SD of a representative experiment performed in triplicates. One-way ANOVA was performed. **P≤0.01; ***P≤0.001.
(A-C) HPKs were irradiated with (A) UVB or treated with (B) nigericin (5 μM) and cells and supernatants were harvested at different time points as indicated. Western blots for expression and activation of the indicated proteins. Specific bands are marked with an asterisk. (C) Expression of Nrf2 and Nrf2 target genes was determined by qRT-PCR. (D, E) THP-1 cells were differentiated with PMA (27 nM) for 3 d, primed with upLPS (100 ng/ml) overnight and treated with nigericin (5 μM) or MSU (150 μg/ml). Cells and supernatants were harvested at different time points as indicated and analysed for (D) expression and activation of the proteins as indicated by Western blot and (E) expression of Nrf2 and Nrf2 target genes by qRT-PCR. (F) HPKs were transfected with specific siRNAs as indicated (scr: scrambled, c1: caspase-1, K1; Keap1), 2 d later irradiated with UVB or treated with nigericin (5 μM). Cells were harvested after 1 h or 5 h, and lysates were analysed for the expression of the indicated proteins by Western blot.

[3] = molecular target: T1, NLRP3 inflammasome; assay: Nigericin-induced IL-1β secretion in human PBMCs (ELISA); format: cell-based; settings: 10 μM 1 h before nigericin (5 μM), 5 h, FIG. 2C
Source text: as §1, §2, §3

[4] = tested on: Monosodium urate (MSU) crystal-induced peritonitis; settings: mice, high concentrations injected into the peritoneum; cited from earlier work

Compound | expression of classical Nrf2 target genes [1] | accumulation of mature IL-1β in the cells (lysate) [2] | IL-1β secretion [2] | IL-1β secretion [3] | inflammasome activation and MSU-induced peritonitis [4] | inflammasome inhibition by SFN with protein synthesis blocked by cycloheximide ([2]; THP-1, CHX 30 μg/ml 1 h before SFN 10 μM, nigericin 5 μM 1 h later, 3.5 h, FIG. 2E) | dependence of inflammasome inhibition on Keap1 ([2]; THP-1 cells with knockout of Keap1, 10 μM pretreatment, nigericin 5 μM, 3.5 h, FIG. 4H)
CCCCCC=CC=C1C(=O)C=CC1CC=CCCCC(=O)O [15d-PGJ2, 15-deoxy-D-prostaglandin J2] | induction of classical Nrf2 target genes | mature IL-1β did not accumulate | inhibited IL-1β secretion | inhibited IL-1β secretion | blocked inflammasome activation and reduced MSU-induced peritonitis | – | –
C[S+]([O-])CCCCN=C=S (stereo not drawn) [SFN, sulforaphane] | induction of classical Nrf2 target genes | mature IL-1β did not accumulate | inhibited IL-1β secretion | inhibited IL-1β secretion | blocked inflammasome activation and reduced MSU-induced peritonitis | did not prevent inflammasome inhibition | Keap1 independent
